Results reported in patent publication US20220169639A1 (priority 2018, published 2022).

tested on: HBeAg (surrogate marker for cccDNA) in HepDES19 cells; assay: Engineered HepDES19 primary screen assay (HBeAg ELISA); assay type: cell-based, HBV; conditions: Hepatitis B virus, 120 h, HBeAg in culture supernatant, 5 days incubation, read-out: IC50 (HepDES19 primary screen assay, inhibition of extracellular HBeAg level)
Excerpt: The assay was employed to screen for cccDNA inhibitors. HepDES19 is a cccDNA-producing cell line. In this cell line, HBeAg in the cell culture supernatant as surrogate marker, as HBeAg production depends on cccDNA level and activity. HepDES19 is an engineered cell line which contains a 1.1 unit length HBV genome, and pgRNA transcription from the transgene is controlled by Tetracycline (Tet). In the absence of Tet, pgRNA transcription will be induced, but HBV e antigen (HBeAg) could not be produced from this pgRNA due to very short leader sequence before the HBeAg start codon and the start codon is disrupted. Only after cccDNA is formed, the missing leader sequence and start codon mutation would be restored from the 3′-terminal redundancy of pgRNA, and then HBeAg could be synthesized. Therefore, HBeAg could be used as a surrogate marker for cccDNA (Zhou, T. et al., Antiviral Res. (2006), 72(2), 116-124; Guo, H. et al., J. Virol. (2007), 81(22), 12472-12484).
HepDES19 cells were seeded at 2×10^6 cells per T150 flask and cultured with the culture medium (Dulbecco's Modified Eagle Medium: Nutrient Mixture F-12 [DMEM-F12, Gibco Cat. 11320-82], 10% Fetal Bovine Serum [FBS, Clontech Cat. 631101], 0.1 mM Non-Essential Amino Acids Solution [NEAA, Gibco Cat. 11140-050], 50 μg/mL Penicillin-Streptomycin [PS, Invitrogen Cat. 15140-163], 500 μg/mL Geneticin [G418, Invitrogen Cat. 10131-027]) containing 3 μg/mL Tet (Sigma, Cat. 87128) for 5 days. Cells were then seeded at 4×10^6 cells per T150 in the same culture medium as described above in the absence of Tet for 8 days. Cells were then harvested and frozen at density of 2×10^6 cells per mL. For compound testing, the frozen cells were thawed and seeded into 96-well plates at a density of 6×10^4 cells per well. At 24 hours after seeding, half log serial dilutions of compounds made with Dimethyl sulfoxide (DMSO, Sigma, Cat. D2650) were further diluted with the same culture medium as described above before they were added to the cells to reach desired final compound concentrations and 1% DMSO concentration. Plates were then incubated at 37° C. for another 5 days before measurement of HBeAg level and cell viability. Intracellular HBeAg level were measured with enzyme-linked immunosorbent assay (ELISA) kit (Shanghai Kehua Diagnostic Medical Products Co., Ltd). Cell viability was assessed using Cell Counting Kit-8 (DonJindo, Cat. CK04-20). IC50 values were derived from the dose-response curve using 4 parameter logistic curve fit method.
The compounds of the present invention were tested for their capacity to inhibit extracellular HBeAg level as described herein.

Compound | IC50 [µM]
COc1cc(OCCOCCN2CC[C@H](C(=O)O)C2)c(-c2cc(=O)c3cccc(Cl)c3o2)cc1C [Example 051, (3S)-1-[2-[2-[2-(8-chloro-4-oxo-chromen-2-yl)-5-methoxy-4-methyl-phenoxy]ethoxy]ethyl]pyrrolidine-3-carboxylic acid] | 7.86
Cc1ccc(-c2cc(=O)c3cccc(Cl)c3o2)c(OCCNC2CC(C(=O)O)C2)c1 (centres unmarked) [Example 053, 3-[2-[2-(8-chloro-4-oxo-chromen-2-yl)-5-methyl-phenoxy]ethylamino]cyclobutanecarboxylic acid] | 0.1
Cc1ccc(-c2cc(=O)c3cccc(Cl)c3o2)c(OCCN2CC(C(=O)O)C2)c1 [Example 054, 1-[2-[2-(8-chloro-4-oxo-chromen-2-yl)-5-methyl-phenoxy]ethyl]azetidine-3-carboxylic acid] | 0.24
O=c1cc(-c2ccc(Br)cc2OCCN[C@H]2CC[C@@H](C(=O)O)CC2)oc2c(Cl)cccc12 [Example 055, cis-4-[2-[5-bromo-2-(8-chloro-4-oxo-chromen-2-yl)phenoxy]ethylamino]cyclohexanecarboxylic acid] | 0.98
O=c1cc(-c2ccc(Br)cc2OCCN[C@H]2CC[C@H](C(=O)O)CC2)oc2c(Cl)cccc12 [Example 056, trans-4-[2-[5-bromo-2-(8-chloro-4-oxo-chromen-2-yl)phenoxy]ethylamino]cyclohexanecarboxylic acid] | 1
CC(NCCOc1cc(C(F)(F)F)ccc1-c1cc(=O)c2cccc(Cl)c2o1)C(=O)O (centres unmarked) [Example 057, 2-[2-[2-(8-chloro-4-oxo-chromen-2-yl)-5-(trifluoromethyl)phenoxy]ethylamino]propanoic acid] | 1.5
Cc1ccc(-c2cc(=O)c3cccc(Cl)c3o2)c(OCCNC(C)(C)C(=O)O)c1 [Example 058, 2-[2-[2-(8-chloro-4-oxo-chromen-2-yl)-5-methyl-phenoxy]ethylamino]-2-methyl-propanoic acid] | 3.41
Cc1cc(-c2cc(=O)c3cccc(Cl)c3o2)c(OCCN2CC(C(=O)O)C2)cc1Cl [Example 061, 1-[2-[5-chloro-2-(8-chloro-4-oxo-chromen-2-yl)-4-methyl-phenoxy]ethyl]azetidine-3-carboxylic acid] | 5.71
CC(CC(=O)O)NCCCOc1cc(C(F)(F)F)ccc1-c1cc(=O)c2cccc(Cl)c2o1 (centres unmarked) [Example 062, 3-[3-[2-(8-chloro-4-oxo-chromen-2-yl)-5-(trifluoromethyl)phenoxy]propylamino]butanoic acid] | 2.02
O=C(O)C(CC1CCCCC1)NCCCOc1cc(C(F)(F)F)ccc1-c1cc(=O)c2cccc(Cl)c2o1 (centres unmarked) [Example 063, 2-[3-[2-(8-chloro-4-oxo-chromen-2-yl)-5-(trifluoromethyl)phenoxy]propylamino]-3-cyclohexyl-propanoic acid] | 4.32
CS(=O)(=O)NC(=O)[C@@H]1CCN(CCCOc2cc(C(F)(F)F)ccc2-c2cc(=O)c3cccc(Cl)c3o2)C1 [Example 065, (3R)-1-[3-[2-(8-chloro-4-oxo-chromen-2-yl)-5-(trifluoromethyl)phenoxy]propyl]-N-methylsulfonyl-pyrrolidine-3-carboxamide] | 7.21
O=C(NS(=O)(=O)C1CC1)[C@@H]1CCN(CCCOc2cc(C(F)(F)F)ccc2-c2cc(=O)c3cccc(Cl)c3o2)C1 [Example 067, (3R)-1-[3-[2-(8-chloro-4-oxo-chromen-2-yl)-5-(trifluoromethyl)phenoxy]propyl]-N-cyclopropylsulfonyl-pyrrolidine-3-carboxamide] | 8.4
CS(=O)(=O)NC(=O)C1CN(CCOc2cc(C(F)(F)F)ccc2-c2cc(=O)c3cccc(Cl)c3o2)CCO1 (centres unmarked) [Example 068, 4-[2-[2-(8-chloro-4-oxo-chromen-2-yl)-5-(trifluoromethyl)phenoxy]ethyl]-N-methylsulfonyl-morpholine-2-carboxamide] | 5.51
CS(=O)(=O)NC(=O)[C@H]1CCN(CCOc2cc(Br)ccc2-c2cc(=O)c3cccc(Cl)c3o2)C1 [Example 069] | 1.77
CS(=O)(=O)NC(=O)[C@@H]1CCN(CCOc2cc(C(F)(F)F)ccc2-c2cc(=O)c3cccc(Cl)c3o2)C1 [Example 070, (3R)-1-[2-[2-(8-chloro-4-oxo-chromen-2-yl)-5-(trifluoromethyl)phenoxy]ethyl]-N-methylsulfonyl-pyrrolidine-3-carboxamide] | 1.01
CS(=O)(=O)NC(=O)[C@H]1CCN(CCOc2cc(C(F)(F)F)ccc2-c2cc(=O)c3cccc(Cl)c3o2)C1 [Example 071, (3S)-1-[2-[2-(8-chloro-4-oxo-chromen-2-yl)-5-(trifluoromethyl)phenoxy]ethyl]-N-methylsulfonyl-pyrrolidine-3-carboxamide] | 1.03
O=C(NS(=O)(=O)C1CC1)C1CCCN1CCOc1cc(C(F)(F)F)ccc1-c1cc(=O)c2cccc(Cl)c2o1 (centres unmarked) [Example 072, 1-[2-[2-(8-chloro-4-oxo-chromen-2-yl)-5-(trifluoromethyl)phenoxy]ethyl]-N-cyclopropylsulfonyl-pyrrolidine-2-carboxamide] | 2.89
CS(=O)(=O)NC(=O)C1CCCN1CCOc1cc(Br)ccc1-c1cc(=O)c2cccc(Cl)c2o1 (centres unmarked) [Example 074, 1-[2-[5-bromo-2-(8-chloro-4-oxo-chromen-2-yl)phenoxy]ethyl]-N-methylsulfonyl-pyrrolidine-2-carboxamide] | 1.03
O=c1cc(-c2ccc(C(F)(F)F)cc2OCCCNC2CCS(=O)(=O)CC2)oc2c(Cl)cccc12 [Example 078, 8-chloro-2-[2-[3-[(1,1-dioxothian-4-yl)amino]propoxy]-4-(trifluoromethyl)phenyl]chromen-4-one] | 7.8
CS(=O)(=O)CCNCCCOc1cc(C(F)(F)F)ccc1-c1cc(=O)c2cccc(Cl)c2o1 [Example 079, 8-chloro-2-[2-[3-(2-methylsulfonylethylamino)propoxy]-4-(trifluoromethyl)phenyl]chromen-4-one] | 0.78
CS(=O)(=O)N1CCN(CCCOc2cc(C(F)(F)F)ccc2-c2cc(=O)c3cccc(Cl)c3o2)CC1 [Example 081, 8-chloro-2-[2-[3-(4-methylsulfonylpiperazin-1-yl)propoxy]-4-(trifluoromethyl)phenyl]chromen-4-one] | 7.11
NC(=O)C1CCN(CCOc2cc(Br)ccc2-c2cc(=O)c3cccc(Cl)c3o2)C1 (centres unmarked) [Example 083, 1-[2-[5-bromo-2-(8-chloro-4-oxo-chromen-2-yl)phenoxy]ethyl]pyrrolidine-3-carboxamide] | 0.56
NC(=O)C1CSCCN1CCOc1cc(Br)ccc1-c1cc(=O)c2cccc(Cl)c2o1 (centres unmarked) [Example 085, 4-[2-[5-bromo-2-(8-chloro-4-oxo-chromen-2-yl)phenoxy]ethyl]thiomorpholine-3-carboxamide] | 1.08
O=c1cc(-c2ccc(C(F)(F)F)cc2OCC(O)CNS(=O)(=O)C2CC2)oc2c(Cl)cccc12 (centres unmarked) [Example 086, N-[3-[2-(8-chloro-4-oxo-chromen-2-yl)-5-(trifluoromethyl)phenoxy]-2-hydroxy-propyl]cyclopropanesulfonamide] | 3.22
O=c1cc(-c2ccc(Br)cc2OCCOCCN2CCOCC2)oc2c(Cl)cccc12 [Example 090, 2-[4-bromo-2-[2-(2-morpholinoethoxy)ethoxy]phenyl]-8-chloro-chromen-4-one] | 1.3
Cc1ccc(-c2cc(=O)c3cccc(Cl)c3o2)c(OCCN2CCNC2=O)c1 [Example 091, 1-[2-[2-(8-chloro-4-oxo-chromen-2-yl)-5-methyl-phenoxy]ethyl]imidazolidin-2-one] | 2.83
